The subject of one experiment is oncovirus. The experiment in a line: Compound was evaluated for the antiviral activity against model oncovirus SV 40; A - Marginal activity was found. In kind it is functional.
Experiment [1] has as its system Human immunodeficiency virus 1. The experiment in a line: Inhibitory concentration against HIV-1 was determined. Format: functional, organism-based.
Experiment [2] deals with Human immunodeficiency virus 1. Briefly: Effective concentration against HIV-1 was determined. Format: functional, organism-based.
The test system of experiment [3] is Human immunodeficiency virus 1. The experiment in a line: Compound was evaluated for the inhibitory activity against HIV-1; IA - Inactive. Format: functional, organism-based.

Calls of active or inactive are those of the source. The calls are words filed in the database; no cut-off is given here.

`Cc1cn([C@H]2C[C@](C#N)(N(C)O)[C@@H](CO[Si](C)(C)C(C)(C)C)O2)c(=O)[nH]c1=O`: in the experiment on oncovirus, the Activity entry is listed as “A”.

In the case of `Cc1cn(C2CC3C(COCN3O)O2)c(=O)[nH]c1=O` (stereo unspecified), in experiment [1], the IC50 was more than 210000 nM. The same compound came in with an EC50 in experiment [2] of 2500 nM.

Turning to `Cc1cn(C2CC(N(O)Cc3ccccc3)C(CO)O2)c(=O)[nH]c1=O` (stereo unspecified), the outcome in experiment [3] was inactive. In addition, the Activity entry in the experiment with oncovirus is given as “A”.

Turning to `Cc1cn(C2CC(N(C)O)C(CO)O2)c(=O)[nH]c1=O` (stereo unspecified), in the experiment with oncovirus, the Activity result is listed as “A”.

Source of the values: ChEMBL document CHEMBL1126389, “Synthesis and anti-HIV activity of 3-deoxy-3-(N-hydroxyamino) analogues of nucleosides” (Bioorg Med Chem Lett, 1992).
